Earlier results on 3 molecules are cited in patent US20070042005A1, “Pharmaceutical composition comprising fungal cell or fragment thereof” (priority 2003, published 2007).

The conditions of data set [1]: rats.
The conditions of data set [2]: in animals; owing to poor intestinal permeability.

As to `C[C@H](N[C@@H](CCc1ccccc1)C(=O)O)C(=O)N1CCC[C@H]1C(=O)O` [Enalaprilat], the oral absorption result is recorded as “poorly absorbed orally”.

Turning to `CCCCCCCCCCCCCCCC(=O)OC(CC(=O)[O-])C[N+](C)(C)C` (stereo not drawn) [Palmitoyl carnitine], the “effect on bioavailability of cefoxitin” value in data set [1] is reported as “increase the bioavailability of cefoxitin”.

`CO[C@@]1(NC(=O)Cc2cccs2)C(=O)N2C(C(=O)O)=C(COC(N)=O)CS[C@@H]21` [cefoxitin]: the oral bioavailability in data set [2] is reported as < 5%.
